# Experimental data from the supplement of paper PMC10307832.
# Tests used:
# Assay in all cases: relative viability (nuclei count vs DMSO), 5 days (fraction); higher = more cells survive
# [1] = compound: NC(=O)[C@@H](CCC(F)(F)F)N(Cc1ccc(-c2ncon2)cc1F)S(=O)(=O)c1ccc(Cl)cc1 [Avagacestat] + CC(=O)c1c(C)c2cnc(Nc3ccc(N4CCNCC4)cn3)nc2n(C2CCCC2)c1=O [Palbociclib] (partner 0.5 µM)
# Method in brief: (§1)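 Five library-drug doses in √10 steps were combined with a fixed anchor-drug dose, or a single drug was given alone, by pin tool to lung cancer cell lines in 1536-well plates the day after seeding. Nuclei were stained and counted after 5 days. Relative viability is the nuclei count in treated wells over that in vehicle wells, taken as the median of duplicate plates.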
# [2] = compound: NC(=O)[C@@H](CCC(F)(F)F)N(Cc1ccc(-c2ncon2)cc1F)S(=O)(=O)c1ccc(Cl)cc1 [Avagacestat] + CCNC(=O)c1noc(-c2cc(C(C)C)c(O)cc2O)c1-c1ccc(CN2CCOCC2)cc1 [Luminespib] (partner 0.01 µM)
# Method in brief: as §1
# [3] = compound: NC(=O)[C@@H](CCC(F)(F)F)N(Cc1ccc(-c2ncon2)cc1F)S(=O)(=O)c1ccc(Cl)cc1 [Avagacestat] + COc1cccc2cc(-c3nc([C@H]4CC[C@H](C(=O)O)CC4)n4ncnc(N)c34)[nH]c12 [OSI-027] (partner 0.5 µM)
# Method in brief: as §1
# [4] = compound: NC(=O)[C@@H](CCC(F)(F)F)N(Cc1ccc(-c2ncon2)cc1F)S(=O)(=O)c1ccc(Cl)cc1 [Avagacestat] + CS(=O)(=O)N1CCN(Cc2cc3nc(-c4cccc5[nH]ncc45)nc(N4CCOCC4)c3s2)CC1 [Pictilisib] (partner 1 µM)
# Method in brief: as §1
Cell Line,relative viability ([1]; first compound 0.08 µM),relative viability ([1]; first compound 0.253 µM),relative viability ([1]; first compound 0.8 µM),relative viability ([1]; first compound 2.53 µM),relative viability ([1]; first compound 8 µM),relative viability ([2]; first compound 0.08 µM),relative viability ([2]; first compound 0.253 µM),relative viability ([2]; first compound 0.8 µM),relative viability ([2]; first compound 2.53 µM),relative viability ([2]; first compound 8 µM),relative viability ([3]; first compound 0.08 µM),relative viability ([3]; first compound 0.253 µM),relative viability ([3]; first compound 0.8 µM),relative viability ([3]; first compound 2.53 µM),relative viability ([3]; first compound 8 µM),relative viability ([4]; first compound 0.08 µM),relative viability ([4]; first compound 0.253 µM),relative viability ([4]; first compound 0.8 µM),relative viability ([4]; first compound 2.53 µM),relative viability ([4]; first compound 8 µM)
NCI-H1395,0.675,0.64,0.594,0.486,0.593,0.806,0.836,0.567,0.799,0.662,0.631,0.633,0.634,0.588,0.626,0.601,0.735,0.658,0.488,0.702
NCI-H1355,0.441,0.418,0.353,0.351,0.333,0.769,0.717,0.797,0.635,0.641,0.404,0.388,0.426,0.38,0.342,0.442,0.423,0.421,0.385,0.418
HOP-62,0.461,0.482,0.412,0.458,0.366,0.988,1.09,1.01,0.889,0.83,1.16,0.895,0.737,0.609,0.63,0.825,0.778,0.525,0.573,0.857
ChaGo-K-1,1.05,1.01,0.933,0.887,0.798,0.551,0.718,0.747,0.551,0.595,0.659,0.655,0.6,0.456,0.451,0.701,0.675,0.924,1.09,0.801
NCI-H23,0.515,0.566,0.505,0.44,0.572,0.229,0.235,0.215,,0.223,0.778,0.619,0.8,0.627,0.537,0.523,0.453,0.472,0.475,0.555
NCI-H2170,0.421,0.469,0.419,0.404,0.433,0.721,0.588,0.817,0.399,0.754,0.862,0.8,0.851,0.721,0.643,0.329,0.309,0.295,0.278,0.326
EMC-BAC-2,0.539,0.577,0.556,0.52,0.543,1.33,1.4,1.29,1.12,1.1,0.364,0.445,0.429,0.396,0.364,0.567,0.554,0.564,0.489,0.517
NCI-H2347,0.398,0.481,0.409,0.445,0.462,0.633,0.379,0.608,0.512,0.311,0.506,0.352,0.398,0.366,0.369,0.467,0.688,0.849,0.387,0.624
SW 1573,0.512,0.422,0.475,0.337,0.357,0.341,0.257,0.218,0.196,0.214,0.8,0.654,0.806,0.61,0.446,0.771,0.625,0.524,0.492,0.444
NCI-H358,0.148,0.137,0.126,0.143,0.132,0.449,0.467,0.368,0.412,0.244,0.895,0.79,0.768,0.682,0.738,0.356,0.337,0.493,0.349,0.385
LCLC-103H,0.54,0.444,0.473,0.501,0.446,1.1,1.27,0.979,0.808,0.851,0.488,0.531,0.438,0.409,0.406,0.629,0.533,0.572,0.58,0.509
HCC-15,0.906,1.01,0.78,0.68,0.694,0.442,0.338,0.309,0.325,0.284,0.757,0.881,0.776,0.644,0.717,0.837,0.801,0.802,0.808,0.611
NCI-H3122,0.198,0.191,0.248,0.221,0.182,0.0934,0.101,0.074,0.0983,0.11,1.09,1.24,1.21,,1.07,0.723,0.751,0.748,0.715,0.607
CAL-12T,0.535,0.384,0.474,0.478,0.5,0.351,0.921,0.427,0.364,0.276,1.01,0.873,0.957,0.841,0.607,0.734,0.47,0.719,0.624,0.48
COR-L23,0.283,0.266,0.284,0.276,0.217,1.08,0.803,1.08,0.642,0.512,1.06,1.02,0.906,0.697,0.661,1.07,0.878,0.774,0.653,0.397
NCI-H1792,0.817,,0.751,,0.612,0.649,0.478,0.522,0.414,0.33,1.03,,0.628,,0.677,0.252,0.315,0.264,0.24,0.21
NCI-H2087,0.228,0.181,0.276,0.223,0.231,0.161,0.173,0.276,0.264,0.143,0.631,0.617,0.63,0.54,0.575,0.905,1.04,1.27,0.896,0.955
LC-2-ad,0.483,0.472,0.529,0.439,0.381,1.18,1.05,1.18,0.948,1.14,0.796,0.898,0.855,0.795,0.739,0.569,0.41,0.518,0.382,0.269
H3255,0.312,0.361,0.331,0.373,0.401,1.02,0.951,0.941,1.05,0.847,0.642,0.74,0.828,0.625,0.621,0.488,0.544,0.494,0.481,0.474
NCI-H727,0.578,0.577,0.606,0.684,0.672,0.36,0.343,0.289,0.355,0.39,0.675,0.632,0.92,0.521,0.517,0.537,0.356,0.512,0.434,0.603
LCLC-97TM1,0.294,0.264,0.312,0.185,0.206,0.849,1.03,0.837,0.705,0.718,0.562,0.674,0.424,0.694,0.518,0.184,0.138,0.139,0.181,0.145
LU99A,0.407,0.429,0.472,0.414,0.366,0.308,0.199,0.305,0.247,0.213,0.285,0.28,0.278,0.286,0.266,0.282,0.325,0.341,0.277,0.307
NCI-H1651,0.521,0.51,0.569,0.46,0.504,1.09,0.931,0.726,0.719,0.852,0.761,0.814,0.848,0.751,0.656,0.566,0.576,0.711,0.585,0.368
NCI-H322M,0.456,0.442,0.455,0.419,0.531,0.862,0.875,0.927,0.695,0.638,0.519,0.562,0.571,0.501,0.488,0.503,0.487,0.478,0.441,0.415
SK-LU-1,0.377,0.372,0.327,0.338,0.345,0.223,0.189,0.218,0.201,0.225,0.379,0.307,0.297,0.29,0.248,0.628,0.526,0.586,,0.354
NCI-H1666,0.69,0.699,0.642,0.714,0.644,1.29,1.21,1.12,1.07,1.13,1.2,0.933,1.1,0.911,0.905,0.416,0.445,0.499,0.48,0.49
NCI-H2126,0.395,0.355,0.385,0.358,0.373,0.893,0.939,0.978,0.852,0.891,0.847,0.721,0.703,0.616,0.669,0.521,0.461,0.487,0.477,0.463
